Reference: PubChem BioAssay AID602217 (Sanford-Burnham Center for Chemical Genomics, 2012)
Active and inactive are the calls of the source.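 Rule for the calls: active = IC50 at or below a set limit; inactive = the rest.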

System: HL-1 cardiomyocytes, 2-deoxyglucose injury, ATPLite luminescence, 2 h
Experiment: protection of HL-1 cardiomyocytes from 2-deoxyglucose injury, dose response, cell-based, ATPLite luminescence (AID 602217);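 note: cells kept in glucose-free DMEM during the 2-deoxyglucose injury; potency of protection where actives preserve ATP signal against 2-deoxyglucose stress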

Structure (SMILES) | IC50
O=C(CCCN1C(=O)c2cccc3cccc(c23)C1=O)N1CCN(c2ccccc2O)CC1 | 27.4 µM (inactive)
COC(=O)c1cc2c(-c3ccccc3)cc3ccccn3c-2c1C(=O)OC | > 79 µM (inactive)
CC(C)=NNc1cnnc2ccc([N+](=O)[O-])cc12 | > 79 µM (inactive)
COc1cccc(-c2cnc3c(NC=O)cc(-c4cc(C)c(O)c(C)c4)cn23)c1 | > 79 µM (inactive)
Cc1cc(N)n(-c2nc(-c3cccnc3)nc3ccccc23)n1 | > 79 µM (inactive)
CC1Nc2ncnc(N3CCN(c4ccccc4)CC3)c2N(Cc2ccc(Cl)cc2)C1=O (stereo not drawn) | 1.95 µM
C=CC[C@@H](CC(=O)NCCO)C(=O)NC[C@H](OC(=O)[C@@H](CC=C)Cc1ccc(F)cc1)c1ccccc1 | 42.7 µM (inactive)
COc1cc(/C=C/c2nnc3c4ccccc4ncn23)cc(OC)c1OC | 31.9 µM (inactive)
CC(=O)Nc1ccc(S(=O)(=O)N(Cc2cccnc2)Cc2cc3ccccc3[nH]c2=O)cc1 | 30.8 µM (inactive)
CC(=O)Nc1ccc(Nc2nc(-c3sc(NC(C)=O)nc3C)cs2)cc1 | 43.6 µM (inactive)
NC(=O)c1nsc(C(=O)N(c2ccccc2F)C(C(=O)NCc2ccccc2)c2ccc(O)cc2)c1N (stereo not drawn) | 11 µM
O=C(COC(=O)c1ccccc1C(=O)OCC(=O)NCCc1c[nH]c2ccccc12)NCCc1c[nH]c2ccccc12 | > 79 µM (inactive)
COc1cc(NC(=O)c2cc3nc(-c4ccccc4)cc(-c4ccccc4)n3n2)cc(OC)c1OC | 23.9 µM (inactive)
Cc1[nH]c2ccccc2c1/C=N/NC(=O)c1cc(-c2ccccc2)n[nH]1 | 22.8 µM (inactive)
CC(=O)c1ccc(-c2cnc3c(NC=O)cc(-c4cccc(NS(C)(=O)=O)c4)cn23)cc1 | > 79 µM (inactive)
COc1cc(Nc2nc3ccccc3n3nnnc23)cc(OC)c1OC | > 79 µM (inactive)
COC(=O)c1cc2ccccn2c2c(C(=O)OC)c(C(=O)OC)cc1-2 | > 79 µM (inactive)
COc1cc(-c2cc3nc(NCCc4ccc(S(N)(=O)=O)cc4)ccn3n2)cc(OC)c1OC | 48.7 µM (inactive)
COc1ccccc1NC(=O)c1cc(-c2cc(OC)c(OC)c(OC)c2)nc2ccccc12 | 14.3 µM
COc1ccc(N(CC(=O)Nc2cccc(C(C)=O)c2)S(=O)(=O)c2ccc(NC(C)=O)cc2)cc1 | > 79 µM (inactive)
COc1ccc(C(=O)O/N=C(/c2ccccc2)c2ccncc2)cc1OC | > 79 µM (inactive)

Structure (SMILES) | IC50
CC(=O)c1ccc(-c2cnc3c(NC=O)cc(-c4cccc(C(=O)N(C)C)c4)cn23)cc1 | > 79 µM (inactive)
COc1ccc(C(C(=O)NC2CCCC2)N(C(=O)c2snc(C(N)=O)c2N)c2cccc(O)c2)cc1 (stereo not drawn) | 40.9 µM (inactive)
Cc1ccccc1N(C(=O)c1snc(C(N)=O)c1N)C(C(=O)NCc1ccccc1)c1ccc(O)cc1 (stereo not drawn) | > 79 µM (inactive)
CCOc1ccccc1Nc1nnc(SCc2nnc(-c3cc(OC)c(OC)c(OC)c3)o2)s1 | 14.6 µM
Cc1cccc(NC(=O)c2oc3ccc(S(=O)(=O)N4CCOCC4)cc3c2C)c1C | 30.5 µM (inactive)
CCOC(=O)C1CCN(c2cc3c(cc2NC(=O)c2ccccc2)n(C)c(=O)n3C)CC1 | > 79 µM (inactive)
O=C(Nc1ccccc1)c1nc[nH]c1C(=O)NCCNC(=O)c1[nH]cnc1C(=O)Nc1ccccc1 | 4.82 µM
CC(=O)c1ccc(-c2ccc(C(=O)Nc3nc(-c4ccccn4)cs3)o2)cc1 | > 79 µM (inactive)
O=S(=O)(c1ccccc1)N1CCN(c2nc(-c3cccnc3)nc3ccccc23)CC1 | 51.6 µM (inactive)
Cc1ccc(NC(=O)c2nc[nH]c2C(=O)NCCCNC(=O)c2[nH]cnc2C(=O)Nc2ccc(C)cc2)cc1 | > 79 µM (inactive)
CC(=O)Nc1cccc(-c2cc(NC(C)=O)c3ncc(-c4ccccc4)n3c2)c1 | 30.9 µM (inactive)
CN(C(=O)c1sc2nc(N3CCOCC3)c3c(c2c1N)CCCC3)c1ccccc1 | > 79 µM (inactive)
CNC(=O)COC(=O)/C=C/c1cn(-c2ccccc2)nc1-c1ccc(C)o1 | > 79 µM (inactive)
CC(C)(C)OC(=O)N1CCC(NC(=O)c2nc[nH]c2C(=O)NCC(=O)OCc2ccccc2)CC1 | 25.8 µM (inactive)
COc1ccc(-n2cc(-c3ccccc3)c3c(N4CCOCC4)ncnc32)cc1 | 4.4 µM
CC(C)OCCCNC(=O)CCC(=O)NNc1nc2ccccc2c2nc(-c3ccccc3)nn12 | > 79 µM (inactive)
COc1cc(C(=O)Nc2nc(-c3cccs3)cs2)cc(OC)c1OC | 16.9 µM
CC(C)(C)OC(=O)CNC(=O)c1[nH]cnc1C(=O)NCC(=O)OCc1ccccc1 | 21.7 µM (inactive)
COc1ccc(-c2csc(NC(=O)c3cccc(N4C(=O)CCC4=O)c3)n2)cc1OC | 29.9 µM (inactive)
COc1cc(-c2cc(NC(C)=O)c3ncc(-c4cc(OC)c(OC)c(OC)c4)n3c2)cc(OC)c1OC | 6.4 µM
COc1ccccc1N1CCN(C(=O)c2ccc3nc(-c4ccco4)c(-c4ccco4)nc3c2)CC1 | 16.4 µM

Structure (SMILES) | IC50
Cc1[nH]c2ccccc2c1/C=N/NC(=O)c1cc(-c2cccs2)[nH]n1 | > 79 µM (inactive)
COc1ccc2[nH]c(=O)c(CN(Cc3cccnc3)S(=O)(=O)c3ccccc3F)cc2c1 | 18.2 µM
CC(OC(=O)c1cc(-c2cccnc2)nc2ccccc12)C(=O)Nc1ccc2ccccc2c1 (stereo not drawn) | > 79 µM (inactive)
O=C(Nc1cc(S(=O)(=O)N2CCOCC2)ccc1N1CCCCC1)c1cc(-c2ccccn2)nc2ccccc12 | 21 µM (inactive)
COc1ccc(-c2cc(NC=O)c3ncc(-c4ccc(C(C)=O)cc4)n3c2)cn1 | 22.2 µM (inactive)
COc1ccc(CCNC(=O)C(=O)NCC2CCCN2S(=O)(=O)c2ccccc2)cc1OC (stereo not drawn) | 45.9 µM (inactive)
CN(C)S(=O)(=O)c1ccc2[nH]cc(/C=C/c3nc4ccccc4c(=O)n3-c3ccccc3)c2c1 | 5 µM
CCN(CC)C(=O)c1[nH]cnc1C(=O)NCC(=O)OCc1ccccc1 | 69.9 µM (inactive)
COc1cc(C(=O)N/N=C/c2sc(N3CCOCC3)nc2-c2ccccc2)cc(OC)c1OC | 22.6 µM (inactive)
Cc1cc(C)c(C)c(S(=O)(=O)N2CCN(C(=O)c3cc(=O)[nH]c4ccccc34)CC2)c1C | 23.7 µM (inactive)
O=[N+]([O-])c1ccc(Nc2nc(N/N=C/c3cccc(F)c3)nc(N3CCCC3)n2)cc1 | > 79 µM (inactive)
COc1cc(/C=C(\C#N)c2nc3ccc(C)cc3[nH]2)c([N+](=O)[O-])cc1OC | > 79 µM (inactive)
COc1nc(N/N=C/c2cc3c(cc2Br)OCO3)nc(N2CCOCC2)n1 | > 79 µM (inactive)
COc1ccc(-c2cc(C(=O)Nc3ccccc3N3CCOCC3)c3ccccc3n2)cc1OC | > 79 µM (inactive)
COc1ccc(-c2csc(NC(=O)c3ccc(OCC(=O)N4CCOCC4)c(OC)c3)n2)cc1OC | > 79 µM (inactive)
COCCN1Cc2cccc(C(=O)Nc3cccc(-c4nc5ccccc5[nH]4)c3)c2C1=O | 8.5 µM
COc1ccc(-c2cc(C(=O)N(C)Cc3nc4ccccc4c(=O)[nH]3)c3ccccc3n2)cc1OC | 21.9 µM (inactive)
COC(=O)c1[nH]c2ccccc2c1NC(=O)CNC1CCCCC1 | 41 µM (inactive)
COc1cccc(-c2cnc3c(NC=O)cc(-c4cc(OC)c(OC)c(OC)c4)cn23)c1 | > 79 µM (inactive)
CS(=O)(=O)c1ccc(-c2cnc3c(NC=O)cc(-c4ccsc4)cn23)cc1 | > 79 µM (inactive)
COc1cc2[nH]c(=O)n3nc(-c4ccccc4)nc3c2cc1OC | 35.3 µM (inactive)
